The record followed here is patent US20230193038A1, “METHODS OF DIGITAL PRINTING USING MODIFIED INDIGO COMPOUNDS” (VP Jeanswear LP, priority 2017, published 2023).

The data set is described as follows: Conversion of the modified indigo compound to indigo under hydrolyzing conditions. Format: physicochemical. The protocol: The hydrolysis is performed using any chemical compound or condition that is capable of converting the dye compound to indigo. In some embodiments, the hydrolysis is performed in aqueous compositions which contain a hydrolyzing agent. In other embodiments, the hydrolyzing agent may be selected by one skilled in the art and may include, without limitation, a base, heat, steam, or a combination thereof.

Turning to `O=C1/C(=C2/C(=O)c3ccccc3N2C(=O)c2ccncc2)N(C(=O)c2ccncc2)c2ccccc21` [Compound 37], the hydrolysis to indigo result was “hydrolyzes to indigo”.
